These results are taken from patent publication US20090069565A1, “NEW INDOLE DERIVATIVES AS FACTOR XA INHIBITORS” (priority 2001, published 2009).

SMILES strings stand for the structures.

Broadly, the Ki is the equilibrium dissociation constant of an inhibitor or competing ligand from its target.

The target of one experiment is human factor Xa (Homo sapiens, UniProt P00742). Description: Factor Xa assay (chromogenic, substrate S-2765).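 Also: purified enzyme preincubated with inhibitor for 10 min before substrate addition, final reaction volume 100 µl.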 The experiment is classed as biochemical. The note with it: inhibition constant for factor Xa; purified enzyme 0.5 nM, substrate S-2765 140 μM, 25° C., pH 7.8; Ki=IC50/{1+(substrate concentration/Km)}; read-out: Ki(FXa).
human factor Xa, sequence (P00742 235-488 limits assumed): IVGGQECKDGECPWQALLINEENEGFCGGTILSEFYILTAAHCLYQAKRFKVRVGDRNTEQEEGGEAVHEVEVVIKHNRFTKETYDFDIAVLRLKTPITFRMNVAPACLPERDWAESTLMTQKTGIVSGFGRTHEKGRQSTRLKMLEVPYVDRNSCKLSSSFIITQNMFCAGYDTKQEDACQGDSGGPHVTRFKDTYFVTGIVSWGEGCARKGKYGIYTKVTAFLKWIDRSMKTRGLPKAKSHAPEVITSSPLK
human factor Xa, sequence (P00742 41-179 partner limits assumed): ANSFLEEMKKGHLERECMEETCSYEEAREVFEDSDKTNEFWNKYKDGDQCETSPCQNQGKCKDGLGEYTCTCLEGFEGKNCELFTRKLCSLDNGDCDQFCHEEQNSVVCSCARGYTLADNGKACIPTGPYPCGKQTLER
On to `CC(C)N1CCC(NC(=O)c2cc3ccccc3n2CC(=O)Nc2ccc(Cl)cc2)CC1` [Example 248, 1-[(4-chloro-phenylcarbamoyl)-methyl]-1H-indole-2-carboxylic acid (1-isopropyl-piperidin-4-yl)-amide], for which the Ki is 3 nM. Take `CC(C)N1CCC(NC(=O)c2cc3ccccc3n2CC(=O)Nc2ccc(Cl)s2)CC1` [Example 249, 1-[(5-chloro-thiophen-2-ylcarbamoyl)-methyl]-1H-indole-2-carboxylic acid (1-isopropyl-piperidin-4-yl)-amide]: the Ki amounted to 15 nM. As for `O=C(NC1CCN(CCO)CC1)c1cc2ccccc2n1Cc1cc(-c2ccc(Cl)s2)on1` [Example 260, 1-[5-(5-chloro-thiophen-2-yl)-isoxazol-3-ylmethyl]-1H-indole-2-carboxylic acid [1-(2-hydroxy-ethyl)-piperidin-4-yl]-amide], the Ki came out at 131 nM.

The experiment is the same for the next values; noted with them: read-out: Ki(FXa).
Turning to `CC(C)N1CCC(NC(=O)c2cc3cc(C(=O)O)ccc3n2CC(=O)Nc2ccc(Cl)cc2)CC1` [Example 244, 1-[(4-Chloro-phenylcarbamoyl)-methyl]-2-(1-isopropyl-piperidin-4-ylcarbamoyl)-1H-indole-5-carboxylic acid], the Ki worked out at 4 nM. As to `CC(C)N1CCC(NC(=O)c2cc3c(C(=O)O)cccc3n2Cc2cc(-c3ccc(Cl)s3)on2)CC1` [Example 246, 1-[5-(5-Chloro-thiophen-2-yl)-isoxazol-3-ylmethyl]-2-(1-isopropyl-piperidin-4-ylcarbamoyl)-1H-indole-4-carboxylic acid], the Ki is 4 nM. As to `CC(C)N1CCC(NC(=O)c2cc3cc(C(N)=O)ccc3n2Cc2cc(-c3ccc(Cl)s3)on2)CC1` [Example 247, 1-[5-(5-Chloro-thiophen-2-yl)-isoxazol-3-ylmethyl]-1H-indole-2,5-dicarboxylic acid 5-amide 2-[(1-isopropyl-piperidin-4-yl)-amide]], the Ki stood at 24 nM. Turning to `CC(C)N1CCC(NC(=O)c2cc3ccccc3n2CC(=O)Nc2ccc(Cl)cc2F)CC1` [Example 250, 1-[(4-chloro-2-fluoro-phenylcarbamoyl)-methyl]-1H-indole-2-carboxylic acid (1-isopropyl-piperidin-4-yl)-amide], the Ki came to 31 nM. Turning to `O=C(Cn1c(C(=O)NCC2CCN(c3ccncc3)CC2)cc2ccccc21)Nc1ccc(Cl)cc1` [Example 252, 1-[(4-chloro-phenylcarbamoyl)-methyl]-1H-indole-2-carboxylic acid (3,4,5,6-tetrahydro-2H-[1,4′]bipyridinyl-4-ylmethyl)-amide], the Ki worked out at 230 nM. As to `O=C(Cn1c(C(=O)NC2CCN(c3ccncc3)CC2)cc2ccccc21)Nc1ccc(Cl)cc1` [Example 253, 1-[(4-chloro-phenylcarbamoyl)-methyl]-1H-indole-2-carboxylic acid (3,4,5,6-tetrahydro-2H-[1,4′]bipyridinyl-4-yl)-amide], the Ki was 340 nM. Take `O=C(Cn1c(C(=O)N2CCC(Nc3ccncc3)CC2)cc2ccccc21)Nc1ccc(Cl)cc1` [Example 254, N-(4-chloro-phenyl)-2-{2-[4-(pyridin-4-ylamino)-piperidine-1-carbonyl]-indol-1-yl}-acetamide]: the Ki is 223 nM. As for `O=C(Cn1c(C(=O)NC2CCN(C3CC3)CC2)cc2ccccc21)Nc1ccc(Cl)cc1` [Example 255, 1-[(4-chloro-phenylcarbamoyl)-methyl]-1H-indole-2-carboxylic acid (1-cyclopropyl-piperidin-4-yl)-amide], the inhibition constant Ki is 106 nM.

Consider `O=C(Cn1c(C(=O)N2CCC(N3CCCC3)CC2)cc2ccccc21)Nc1ccc(Cl)cc1` [Example 256, N-(4-chloro-phenyl)-2-[2-(4-pyrrolidin-1-yl-piperidine-1-carbonyl)-indol-1-yl]-acetamide], for which the inhibition constant Ki came to 754 nM.

With `CC(C)N1CCC(NC(=O)c2cc3cc([N+](=O)[O-])ccc3n2CC(=O)Nc2ccc(Cl)cc2)CC1` [Example 257, 1-[(4-chloro-phenylcarbamoyl)-methyl]-5-nitro-1H-indole-2-carboxylic acid (1-isopropyl-piperidin-4-yl)-amide], the Ki came out at 6 nM.

On to `CC(C)N1CCC(NC(=O)c2cc3c(Cl)c(N)ccc3n2Cc2cc(-c3ccc(Cl)s3)on2)CC1` [Example 258, 5-amino-4-chloro-1-[5-(5-chloro-thiophen-2-yl)-isoxazol-3-ylmethyl]-1H-indole-2-carboxylic acid (1-isopropyl-piperidin-4-yl)-amide], for which the Ki was determined as 11 nM. Take `N#CCN1CCC(NC(=O)c2cc3ccccc3n2Cc2cc(-c3ccc(Cl)s3)on2)CC1` [Example 259, 1-[5-(5-chloro-thiophen-2-yl)-isoxazol-3-ylmethyl]-1H-indole-2-carboxylic acid (1-cyanomethyl-piperidin-4-yl)-amide]: the Ki was found to be 772 nM. For `COCCN1CCC(NC(=O)c2cc3ccccc3n2Cc2cc(-c3ccc(Cl)s3)on2)CC1` [Example 261, 1-[5-(5-chloro-thiophen-2-yl)-isoxazol-3-ylmethyl]-1H-indole-2-carboxylic acid [1-(2-methoxy-ethyl)-piperidin-4-yl]-amide], the Ki is 139 nM. The same measure, in the same setting: with `NC(=O)CN1CCC(NC(=O)c2cc3ccccc3n2Cc2cc(-c3ccc(Cl)s3)on2)CC1` [Example 262, 1-[5-(5-chloro-thiophen-2-yl)-isoxazol-3-ylmethyl]-1H-indole-2-carboxylic acid (1-carbamoylmethyl-piperidin-4-yl)-amide] the figure was 250 nM; with `CNC(=O)CN1CCC(NC(=O)c2cc3ccccc3n2Cc2cc(-c3ccc(Cl)s3)on2)CC1` [Example 263, 1-[5-(5-chloro-thiophen-2-yl)-isoxazol-3-ylmethyl]-1H-indole-2-carboxylic acid (1-methylcarbamoylmethyl-piperidin-4-yl)-amide], 580 nM. With `O=C(NC1CCN(Cc2ncc[nH]2)CC1)c1cc2ccccc2n1Cc1cc(-c2ccc(Cl)s2)on1` [Example 264, 1-[5-(5-chloro-thiophen-2-yl)-isoxazol-3-ylmethyl]-1H-indole-2-carboxylic acid [1-(1H-imidazol-2-ylmethyl)-piperidin-4-yl]-amide], the Ki turned out to be 559 nM. Take `Cn1ccnc1CN1CCC(NC(=O)c2cc3ccccc3n2Cc2cc(-c3ccc(Cl)s3)on2)CC1` [Example 265, 1-[5-(5-chloro-thiophen-2-yl)-isoxazol-3-ylmethyl]-1H-indole-2-carboxylic acid [1-(1-methyl-1H-imidazol-2-ylmethyl)-piperidin-4-yl]-amide]: the Ki came out at 404 nM. The same measure, in the same setting: with `NCC(=O)N1CCC(NC(=O)c2cc3ccccc3n2Cc2cc(-c3ccc(Cl)s3)on2)CC1` [Example 267, 1-[5-(5-chloro-thiophen-2-yl)-isoxazol-3-ylmethyl]-1H-indole-2-carboxylic acid [1-(2-amino-acetyl)-piperidin-4-yl]-amide] the figure was 891 nM; with `CCOC(=O)OC(C)OC(=O)c1ccc2c(c1)cc(C(=O)NC1CCN(C(C)C)CC1)n2Cc1cc(-c2ccc(Cl)s2)on1` (stereo not shown) [Example 268, 1-[5-(5-Chloro-thiophen-2-yl)-isoxazol-3-ylmethyl]-2-(1-isopropyl-piperidin-4-ylcarbamoyl)-1H-indole-5-carboxylic acid 1-ethoxycarbonyloxy-ethyl ester], 42 nM.
